In patent US7371551B1, “Feedback-resistant homoserine transsuccinylases” (priority 2002, dated 2008):

Experiments:
[1] = target: T1, E. coli homoserine transsuccinylase (MetA, SEQ ID No. 2) variant pSLmetAN, Asp101 replaced with Asn (Escherichia coli, UniProt P07623, D101N); test: Inhibition of homoserine transsuccinylase activity by SAM (cell extract, DTNB assay at 412 nm); format: biochemical; settings: pH 7.5, read-out: Activity (%) in the presence of 1 mM SAM
T1 construct: made in house; host or cells: E. coli W3110 (ATCC 27325), cell extract
Method: (§1) In order to determine the sensitivity of the activity of the different homoserine transsuccinylases to SAM, it is possible, for example, to carry out an activity test as described in Lee L. W. et al., J. Biol. Chem. 241, 5479-5480 (1966). In this method, the enzyme extract is incubated with homoserine and succinyl-CoA. After various times, a part of the test assay sample is stopped by adding it to a mixture of ethanol, water, and 5,5′-dithiobis(2-nitrobenzoic acid). The absorption is determined photometrically at 412 nm. The described test is suitable, for example, for determining the sensitivity of the homoserine transsuccinylases to SAM.
(§2) The influence of SAM on the activities of the different homoserine transsuccinylases was determined by quantifying the activity in the presence of different concentrations of SAM (Cl salt, Sigma). The cell extracts were grown and prepared as described in Example 3. The activity test was carried out as described in Lee L. W. et al., J. Biol. Chem. 241, 5479-5480 (1966), with the enzyme extract being incubated with 50 mM potassium phosphate buffer, pH 7.5, 3 mM homoserine and 0.3 mM succinyl-CoA. After various times, 100 μl volumes of test mixture were stopped by adding them in each case to a mixture of 400 μl of ethanol, 400 μl of water and 100 μl of 10 mM 5,5′-dithiobis(2-nitrobenzoic acid). After the resulting mixture had been incubated at room temperature for 5 minutes, the absorption was determined photometrically at 412 nm. After the protein concentration had been determined, the enzyme activity was calculated using the extinction coefficient. The Ki was determined as a measure of the ability of SAM to inhibit the activity.

[2] = target: T2, E. coli homoserine transsuccinylase (MetA, SEQ ID No. 2) variant pSLmetA*A, Tyr294 replaced with Ala (Escherichia coli, UniProt P07623, Y294A); test: as above; format: biochemical; settings: pH 7.5, read-out: Activity (%) in the presence of 1 mM SAM
T2 construct: made in house; host or cells: E. coli W3110 (ATCC 27325), cell extract
Method: as §1, §2

[3] = target: T3, E. coli homoserine transsuccinylase (MetA, SEQ ID No. 2) variant pSLmetA*0, amino acid 294 (Tyr) deleted (Escherichia coli, UniProt P07623, DEL294-294); test: as above; format: biochemical; settings: pH 7.5, read-out: Activity (%) in the presence of 1 mM SAM
T3 construct: made in house; host or cells: E. coli W3110 (ATCC 27325), cell extract
Method: as §1, §2

[4] = target: T4, E. coli homoserine transsuccinylase (MetA, SEQ ID No. 2) variant pSLmetA*P, Tyr294 replaced with Pro (Escherichia coli, UniProt P07623, Y294P); test: as above; format: biochemical; settings: pH 7.5, read-out: Activity (%) in the presence of 1 mM SAM
T4 construct: made in house; host or cells: E. coli W3110 (ATCC 27325), cell extract
Method: as §1, §2

[5] = target: T5, E. coli homoserine transsuccinylase (MetA, SEQ ID No. 2) variant pSLmetA*Q, Tyr294 replaced with Gln (Escherichia coli, UniProt P07623, Y294Q); test: as above; format: biochemical; settings: pH 7.5, read-out: Activity (%) in the presence of 1 mM SAM
T5 construct: made in house; host or cells: E. coli W3110 (ATCC 27325), cell extract
Method: as §1, §2

[6] = target: T6, E. coli homoserine transsuccinylase (MetA, SEQ ID No. 2) variant pSLmetA*K, Tyr294 replaced with Lys (Escherichia coli, UniProt P07623, Y294K); test: as above; format: biochemical; settings: pH 7.5, read-out: Activity (%) in the presence of 1 mM SAM
T6 construct: made in house; host or cells: E. coli W3110 (ATCC 27325), cell extract
Method: as §1, §2

[7] = target: T7, E. coli homoserine transsuccinylase (MetA, SEQ ID No. 2) variant pSLmetA*L, Tyr294 replaced with Leu (Escherichia coli, UniProt P07623, Y294L); test: as above; format: biochemical; settings: pH 7.5, read-out: Activity (%) in the presence of 1 mM SAM
T7 construct: made in house; host or cells: E. coli W3110 (ATCC 27325), cell extract
Method: as §1, §2

[8] = target: T8, E. coli homoserine transsuccinylase (MetA, SEQ ID No. 2) variant pKP446, Tyr294 replaced with Cys (Escherichia coli, UniProt P07623, Y294C); test: as above; format: biochemical; settings: pH 7.5, read-out: Activity (%) in the presence of 1 mM SAM
T8 construct: made in house; host or cells: E. coli W3110 (ATCC 27325), cell extract
Method: as §1, §2

[9] = target: T1, E. coli homoserine transsuccinylase (MetA, SEQ ID No. 2) variant pSLmetAN, Asp101 replaced with Asn; test: biochemical; settings: pH 7.6, read-out: Activity (%) in the presence of 1 mM L-methionine
From the text: (§3) Any method which enables the activity of the enzyme to be determined in the presence of L-methionine or SAM can be used for determining the sensitivity of the homoserine transsuccinylase to L-methionine and/or SAM. For example, the homoserine transsuccinylase activity can be determined by following the method described by Kredich and Tomkins for determining the activity of serine acetyltransferases (Kredich N. M. and Tomkins G. M., J. Biol. Chem. 241, 4955-4965 (1966)). The enzyme activity is measured in an assay sample which contains homoserine and succinyl-CoA. The reaction is started by adding enzyme and monitored in a spectrophotometer by way of the decrease in the extinction at 232 nm which results from cleavage of the thioester bond in the succinyl-coenzyme A. The described test is suitable for determining the sensitivity of the homoserine transsuccinylases to methionine. The inhibition of homoserine transsuccinylase activity is tested in the presence of different concentrations of L-methionine in the reaction mixture.
(§4) The activity, and the influence of L-methionine on the activity, of the different homoserine transsuccinylases were determined by means of an enzyme test using cell extracts in which the respective proteins had been produced. For this, the corresponding plasmids, encoding altered homoserine transsuccinylases, were introduced, by transformation, into the E. coli strain W3110 (ATCC 27325) using methods known to the skilled person. The transformation mixture was spread on LB-tetracycline agar plates (10 g of tryptone/l, 5 g of yeast extract/l, 5 g of NaCl/l, 15 g of agar/l and 15 mg of tetracycline/l) and incubated at 37° C. overnight. The resulting transformants were grown in SM1 medium (for 1 l of medium: CaCl2×2H2O, 0.0147 g, MgSO4×7H2O, 0.3 g, Na2MoO4×2H2O, 0.15 mg, H3BO3, 2.5 mg, CoCl2×6H2O, 0.7 mg, CuSO4×5H2O, 0.25 mg, MnCl2×4H2O, 1.6 mg, ZnSO4×7H2O, 0.3 mg, KH2PO4, 3.0 g, K2HPO4, 12.0 g, (NH4)2SO4, 5 g, NaCl, 0.6 g, FeSO4×7H2O, 0.002 g, Na3-citrate×2H2O, 1 g, glucose, 5 g, tryptone, 1 g, yeast extract, 0.5 g), centrifuged down at an absorption of approx. 0.8 at 600 nm, washed in 50 mM Tris pH 7.5, and centrifuged down once again. The cells were resuspended in 50 mM Tris/Cl, pH 7.5, 2 mM dithiothreitol, 0.5 mM phenylmethylsulfonyl fluoride and disrupted in a French press. The supernatant from a further centrifugation was used as the enzyme extract in the test. The enzyme activity was determined, in a mixture containing 50 mM Tris/Cl, pH 7.6, 1 mM homoserine and 0.1 mM succinyl-CoA, by photometrically quantifying, by means of the decrease in the extinction at 232 nm, the coenzyme A formed in the reaction, following the method described by Kredich and Tomkins for determining the activity of serine acetyltransferases (Kredich N. M. and Tomkins G. M., J. Biol. Chem. 241, 4955-4965 (1966)). The effect of added L-methionine on the activity was determined and the inhibitability was quantified as a Ki value. The Ki which is determined is the concentration of L-methionine at which the activity of the homoserine transsuccinylase is only 50% of its activity in the absence of L-methionine.

[10] = target: T2, E. coli homoserine transsuccinylase (MetA, SEQ ID No. 2) variant pSLmetA*A, Tyr294 replaced with Ala; test: biochemical; settings: pH 7.6, read-out: Activity (%) in the presence of 1 mM L-methionine
From the text: as §3, §4

[11] = target: T3, E. coli homoserine transsuccinylase (MetA, SEQ ID No. 2) variant pSLmetA*0, amino acid 294 (Tyr) deleted; test: biochemical; settings: pH 7.6, read-out: Activity (%) in the presence of 1 mM L-methionine
From the text: as §3, §4

[12] = target: T4, E. coli homoserine transsuccinylase (MetA, SEQ ID No. 2) variant pSLmetA*P, Tyr294 replaced with Pro; test: biochemical; settings: pH 7.6, read-out: Activity (%) in the presence of 1 mM L-methionine
From the text: as §3, §4

[13] = target: T5, E. coli homoserine transsuccinylase (MetA, SEQ ID No. 2) variant pSLmetA*Q, Tyr294 replaced with Gln; test: biochemical; settings: pH 7.6, read-out: Activity (%) in the presence of 1 mM L-methionine
From the text: as §3, §4

[14] = target: T6, E. coli homoserine transsuccinylase (MetA, SEQ ID No. 2) variant pSLmetA*K, Tyr294 replaced with Lys; test: biochemical; settings: pH 7.6, read-out: Activity (%) in the presence of 1 mM L-methionine
From the text: as §3, §4

[15] = target: T7, E. coli homoserine transsuccinylase (MetA, SEQ ID No. 2) variant pSLmetA*L, Tyr294 replaced with Leu; test: biochemical; settings: pH 7.6, read-out: Activity (%) in the presence of 1 mM L-methionine
From the text: as §3, §4

[16] = target: T8, E. coli homoserine transsuccinylase (MetA, SEQ ID No. 2) variant pKP446, Tyr294 replaced with Cys; test: biochemical; settings: pH 7.6, read-out: Activity (%) in the presence of 1 mM L-methionine
From the text: as §3, §4

[17] = system: homoserine transsuccinylase; test: Homoserine transsuccinylase enzyme test using cell extracts, decrease in extinction at 232 nm, with and without L-methionine; format: biochemical, E. coli
From the text: as §3, §4

[18] = system: homoserine transsuccinylase; test: Homoserine transsuccinylase activity test (Lee et al.), 5,5'-dithiobis(2-nitrobenzoic acid), absorption at 412 nm, with and without SAM; format: biochemical, E. coli
Method: as §1, §2

T3 sequence (P07623 other isoform, or with tags, fused parts or gaps DEL294-294): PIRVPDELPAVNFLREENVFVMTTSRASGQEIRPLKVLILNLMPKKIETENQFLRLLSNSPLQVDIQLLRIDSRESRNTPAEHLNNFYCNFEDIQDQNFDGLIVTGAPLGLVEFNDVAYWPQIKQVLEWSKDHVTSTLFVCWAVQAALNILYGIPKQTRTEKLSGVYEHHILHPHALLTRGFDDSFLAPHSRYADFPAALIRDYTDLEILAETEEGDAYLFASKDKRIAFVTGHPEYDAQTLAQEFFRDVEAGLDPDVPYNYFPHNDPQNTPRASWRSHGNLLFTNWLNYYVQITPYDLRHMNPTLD
T2 sequence (P07623 2-309 Y294A): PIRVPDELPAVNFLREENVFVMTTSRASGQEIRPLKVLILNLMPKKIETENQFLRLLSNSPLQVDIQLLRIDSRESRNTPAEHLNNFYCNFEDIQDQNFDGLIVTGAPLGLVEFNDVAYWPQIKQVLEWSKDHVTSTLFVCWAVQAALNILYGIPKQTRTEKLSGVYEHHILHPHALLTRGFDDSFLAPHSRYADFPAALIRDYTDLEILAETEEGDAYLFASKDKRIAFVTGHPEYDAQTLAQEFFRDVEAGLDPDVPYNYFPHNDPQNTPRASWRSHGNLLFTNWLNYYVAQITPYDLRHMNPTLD
T6 sequence (P07623 2-309 Y294K): as the sequence (P07623 2-309 Y294A) above, with A293K counted along it
T1 sequence (P07623 2-309 D101N): as the sequence (P07623 2-309 Y294A) above, with D100N, A293Y counted along it
T5 sequence (P07623 2-309 Y294Q): as the sequence (P07623 2-309 Y294A) above, with A293Q counted along it
T8 sequence (P07623 2-309 Y294C): as the sequence (P07623 2-309 Y294A) above, with A293C counted along it
T4 sequence (P07623 2-309 Y294P): as the sequence (P07623 2-309 Y294A) above, with A293P counted along it
T7 sequence (P07623 2-309 Y294L): as the sequence (P07623 2-309 Y294A) above, with A293L counted along it

C[S+](CC[C@H](N)C(=O)[O-])C[C@H]1O[C@@H](n2cnc3c(N)ncnc32)[C@H](O)[C@@H]1O (stereo partly shown) [SAM, S-Adenosylmethionine]
activity at 1000 µM [1]: 91% | activity at 1000 µM [2]: 95% | activity at 1000 µM [3]: 96% | activity at 1000 µM [4]: 98% | activity at 1000 µM [5]: 87% | activity at 1000 µM [6]: 90% | activity at 1000 µM [7]: 80% | activity at 1000 µM [8]: 92%

CSCC[C@H](N)C(=O)O [L-methionine]
activity at 1000 µM [9]: 86% | activity at 1000 µM [10]: 94% | activity at 1000 µM [11]: 98% | activity at 1000 µM [12]: 91% | activity at 1000 µM [13]: 95% | activity at 1000 µM [14]: 92% | activity at 1000 µM [15]: 89% | activity at 1000 µM [16]: 96%

B1: pSLmetAI: MetA variant with Ile instead of Asp at position 101 (protein, UniProt P07623 2-309, looked up, variant D101I)
Homoserine …: PIRVPDELPAVNFLREENVFVMTTSRASGQEIRPLKVLILNLMPKKIETENQFLRLLSNSPLQVDIQLLRIDSRESRNTPAEHLNNFYCNFEDIQDQNFIGLIVTGAPLGLVEFNDVAYWPQIKQVLEWSKDHVTSTLFVCWAVQAALNILYGIPKQTRTEKLSGVYEHHILHPHALLTRGFDDSFLAPHSRYADFPAALIRDYTDLEILAETEEGDAYLFASKDKRIAFVTGHPEYDAQTLAQEFFRDVEAGLDPDVPYNYFPHNDPQNTPRASWRSHGNLLFTNWLNYYVYQITPYDLRHMNPTLD
Activity (%) in the presence of 1 mM L-methionine ([17]; 1 mM L-methionine, activity in the absence of L-methionine corresponds to 100%): 95% | Activity (U/mg) ([17]; cell extract of E. coli W3110 transformants, 1 mM homoserine, 0.1 mM succinyl-CoA, 50 mM Tris/Cl pH 7.6): 0.107 U/mg | Ki ([17]; concentration of L-methionine at which activity is only 50% of activity in its absence): 9.5 mM | Activity (%) in the presence of 1 mM SAM ([18]; 1 mM SAM, activity in the absence of SAM corresponds to 100%): 93% | Ki ([18]; SAM (Cl salt, Sigma) as inhibitor): 12 mM | Activity (U/mg) ([18]; cell extract, 3 mM homoserine, 0.3 mM succinyl-CoA, 50 mM potassium phosphate buffer pH 7.5): 0.68 U/mg
